Source: patent US12187759B2, “TLR7 agonists” (Primmune Therapeutics, Inc., priority 2019, dated 2025)

Tested on: hPBMCs (Human Peripheral Blood Mononuclear Cells)
Experiment: Induction of interferon-α in hPBMCs in vitro
Type: cell-based
Method in brief: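 Peripheral blood mononuclear cells from healthy human donors were dispensed into replicate culture wells at 1.0-7.5×10^6 cells per well. They were exposed to test compound for 24 hours at 37° C. in humidified 5% CO2, with untreated wells as controls. Secreted interferon-α was quantified with a multisubtype ELISA or as IFNα2a in a luminex panel. MEC was defined as the lowest concentration giving a significant rise above baseline, generally at least 80 pg/ml. IFNmax was the highest IFN level seen at any tested concentration.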

With `CC[C@H](O)[C@@H]1C[C@@H](O)[C@H](n2c(=O)sc3c(=O)[nH]c(N)nc32)O1` [Compound A, 5-amino-3-((2R,3R,5S)-3-hydroxy-5-((S)-1-hydroxypropyl)tetrahydrofuran-2-yl)thiazolo[4,5-d]pyrimidine-2,7(3H,6H)-dione, reference compound] the “Donor 1 MEC” value (Donor 1, interferon-α production) was ≤3.125 µM, the “Donor 1 IFNmax” value (Donor 1, maximum IFN at any concentration of the evaluated range) was 1061 pg/mL and the “Donor 2 MEC” value (Donor 2, interferon-α production) was ≤3.125 µM. For the same molecule, the “Donor 2 IFNmax” value (Donor 2, maximum IFN at any concentration of the evaluated range) was 481 pg/mL, the “Donor 3 MEC” value (Donor 3, interferon-α production) was ≤3.125 µM and the “Donor 3 IFNmax” value (Donor 3, maximum IFN at any concentration of the evaluated range) was 2243 pg/mL. For the same molecule, the Emax (Homo sapiens, PBMC, 24 h, peak IFNα2a as percentage of peak response of standard 2-Amino-7-(cyclopropylmethyl)-9-B-D-xylofuranosyl-7,9-dihydro-1H-purine-6,8-dione, averaged across donors, read-out: IFNrmax, Relative Maximal IFNα2a Production (%)) was 103% and the minimal effective concentration (Homo sapiens, PBMC, minimal effective concentration for interferon-α production (generally at least 80 pg/ml above baseline), geometric mean across at least three donors, 24 hours, read-out: Weighted MEC) was ≤ 3.1 µM.
